The structures appear in SMILES notation.

The nature of data set [1]: log P by HPLC on reversed-phase column (EEC directive 79/831 Annex V.A8). Conditions: reversed-phase column (C18), 43° C., calibration with unbranched alkan-2-ones. It is filed as physicochemical. How it is done:
The log P values reported in the tables and preparation examples above were determined in accordance with EEC directive 79/831 Annex V.A8 by HPLC (High Performance Liquid Chromatography) using a reversed-phase column (C18). Temperature 43° C. The calibration is effected with unbranched alkan-2-ones (having 3 to 16 carbon atoms), for which the log P values are known.

Data set [2] deals with Myzus persicae. Put plainly: Myzus persicae oral test. It is filed as in vivo. Conditions: application rate 4 ppm; mixed population of green peach aphid; after 5 days. How it is done: Solvent: 100 parts by weight of acetone
The plates are then sealed with parafilm which can be pierced by a mixed population of the green peach aphid (Myzus persicae) located in a second microtiter plate in order to take up the solution.
(§1) After 5 days, the efficacy in % is determined. 100% means that all the aphids have been killed; 0% means that none of the aphids have been killed.

In data set [3] the test system is Ctenocephalides felis. Put plainly: Ctenocephalides felis in vitro contact test with adult cat fleas. In kind it is in vivo. The note with it: application rate 5 μg/cm^2 (=500 g of ai/ha), after 48 h. The procedure:
For the coating of the test tubes, 9 mg of active compound are first dissolved in 1 ml of acetone p.a. and then diluted to the desired concentration with acetone p.a. 250 μl of the solution are distributed homogeneously on the inner walls and the base of a 25 ml test tube by turning and rocking on an orbital shaker (rocking rotation at 30 rpm for 2 h). With 900 ppm active compound solution and internal surface 44.7 cm^2, given homogeneous distribution, an area-based dose of 5 μg/cm^2 is achieved.
After the solvent has evaporated off, the tubes are populated with 5-10 adult cat fleas (Ctenocephalides felis), sealed with a perforated plastic lid and incubated in a horizontal position at room temperature and ambient humidity. After 48 h, efficacy is determined. To this end, the tubes are stood upright and the fleas are knocked to the base of the tube. Fleas which remain motionless at the base or are moved in an uncoordinated manner are considered to be dead or moribund.
100% efficacy means that all the fleas were dead or moribund. 0% efficacy means that no fleas were harmed.

Data set [4] relates to Myzus persicae. The data set is described as follows: Myzus persicae spray test. It is filed as in vivo. Conditions: application rate 500 g/ha; Chinese cabbage leaf discs, all stages of green peach aphid; after 5 days. The procedure:
(§2) Solvents: 78 parts by weight of acetone • • 1.5 parts by weight of dimethylformamide
(§3) Emulsifier: alkylaryl polyglycol ether
(§4) To produce a suitable preparation of active compound, 1 part by weight of active compound is dissolved using the stated parts by weight of solvent and made up with water containing an emulsifier concentration of 1000 ppm until the desired concentration is attained. To produce further test concentrations, the preparation is diluted with emulsifier-containing water.
Discs of Chinese cabbage leaves (Brassica pekinensis) infested by all stages of the green peach aphid (Myzus persicae) are sprayed with an active compound preparation of the desired concentration.
as §1

Data set [5] concerns Diabrotica balteata. Put plainly: Diabrotica balteata spray test. It is filed as in vivo. Conditions: application rate 160 μg/well; beetle larvae on germinated wheat grains; after 7 days. The procedure: as §2, §3, §4
Preswollen wheat grains (Triticum aestivum) are incubated in a multiwell plate filled with agar and a little water for one day (5 seed grains per well). The germinated wheat grains are sprayed with an active compound preparation of the desired concentration. Subsequently, each well is infested with 10-20 Diabrotica balteata beetle larvae.
After 7 days, the efficacy in % is determined. 100% means that all wheat plants have grown as in the untreated non-infested control; 0% means that no wheat plant has grown.

A word on the chromatographic logP: it is a lipophilicity value derived from retention on a column. Molecule `COC(=O)c1c([O-])n(CCC#N)c2cccc[n+]12` [1-(2-cyanoethyl)-3-methoxycarbonylimidazo[1,2-a]pyridin-4-ium-2-olate] displayed a chromatographic logP in data set [1] of 0.39. Same read-out and setting: with `COC(=O)c1c([O-])n(CC(F)(F)F)c2cccc[n+]12` [3-methoxycarbonyl-1-(2,2,2-trifluoroethyl)imidazo[1,2-a]pyridin-4-ium-2-olate] the figure was 1.01. Take `N#CCCn1c([O-])c(C(=O)c2cccc(C(F)(F)F)c2)[n+]2ccccc12` [I-004, 1-(2-Cyanoethyl)-3-[3-(trifluoromethyl)benzoyl]imidazo[1,2-a]pyridin-4-ium-2-olate]: the “efficacy (aphids killed)” value in data set [2] is listed as 100%. Further, the chromatographic logP in data set [1] worked out at 1.35. For `N#CCCn1c([O-])c(C(=O)Nc2c(Cl)cccc2Cl)[n+]2ccccc12` [I-016, 1-(2-Cyanoethyl)-3-[(2,6-dichlorophenyl)carbamoyl]imidazo[1,2-a]pyridin-4-ium-2-olate], the “efficacy (fleas dead or moribund)” value in data set [3] was 100%. For the same molecule, the “efficacy (aphids killed)” value in data set [4] was 100%. Besides, in data set [1], the chromatographic logP was found to be 1.81.

As for `Cc1ccc[n+]2c(C(=O)C(F)(F)F)c([O-])n(CCC#N)c12` [I-027, 1-(2-Cyanoethyl)-8-methyl-3-(2,2,2-trifluoroacetyl)imidazo[1,2-a]pyridin-4-ium-2-olate], the chromatographic logP in data set [1] amounted to 1.35. As for `O=C(c1c([O-])n(CC(F)(F)F)c2cccc[n+]12)C(F)(F)F` [I-047, 3-(2,2,2-trifluoroacetyl)-1-(2,2,2-trifluoroethyl)imidazo[1,2-a]pyridin-4-ium-2-olate], in data set [3], the “efficacy (fleas dead or moribund)” value was determined as 80%. Besides, the “efficacy (wheat plants grown as in untreated non-infested control)” value in data set [5] was determined as 100%. The chromatographic logP in data set [1] came out at 1.79. Take `COC(=O)C(=O)c1c([O-])n(CC(F)(F)F)c2cccc[n+]12` [I-051, 3-(2-Methoxy-2-oxoacetyl)-1-(2,2,2-trifluoroethyl)imidazo[1,2-a]pyridin-4-ium-2-olate]: the “efficacy (aphids killed)” value in data set [2] is 100%. The same molecule gave a chromatographic logP in data set [1] of 1.18.

For `N#CCCn1c([O-])c(C(=O)CCl)[n+]2ccccc12` [I-084, 3-(2-Chloroacetyl)-1-(2-cyanoethyl)imidazo[1,2-a]pyridin-4-ium-2-olate], in data set [1], the chromatographic logP turned out to be 0.8. For the molecule `CC1(OC(=O)C(=O)c2c([O-])n(CCC#N)c3cccc[n+]23)CC1` [I-089, 1-(2-Cyanoethyl)-3-[2-(1-methylcyclopropoxy)-2-oxo-acetyl]imidazo[1,2-a]pyridin-4-ium-2-olate], in data set [4], the “efficacy (aphids killed)” value is 90%. This molecule showed a chromatographic logP in data set [1] of 1.33. As for `CO/N=C/C(=O)c1c([O-])n(CCC#N)c2cccc[n+]12` [I-094, 1-(2-Cyanoethyl)-3-[(2E)-2-methoxyiminoacetyl]imidazo[1,2-a]pyridin-4-ium-2-olate], the “efficacy (aphids killed)” value in data set [2] worked out at 100%. This molecule showed a chromatographic logP in data set [1] of 0.73.

`Cc1ccc[n+]2c(C(=O)CCl)c([O-])n(CCC#N)c12` [I-095, 3-(2-Chloroacetyl)-1-(2-cyanoethyl)-8-methyl-imidazo[1,2-a]pyridin-4-ium-2-olate]: in data set [1], the chromatographic logP is 0.8.

For the origin of these results see patent US10993439B2, “Mesoionic imidazopyridines as insecticides” (BAYER AKTIENGESELLSCHAFT, priority 2017, dated 2021).
